Measured values reported in the NIST ThermoML archive (doi:10.1016/j.tca.2011.01.001).
± gives the expanded uncertainty stated by the source.

Columns and labels:
[1] = Molar enthalpy of transition or fusion; conditions: Crystal; DSC

O=C(O)c1c(O)cccc1O [2,6-dihydroxybenzoic acid]
Conditions	vapor or sublimation pressure [kPa]
346 K, Crystal, Torsion effusion method	9.9e-05 ± 5e-06
347 K, Crystal, Torsion effusion method	0.000113 ± 6e-06
351.5 K, Crystal, Torsion effusion method	0.00017 ± 9e-06
353.3 K, Crystal, Torsion effusion method	0.000216 ± 1.1e-05
354 K, Crystal, Torsion effusion method	0.000223 ± 1.1e-05
355 K, Crystal, Torsion effusion method	0.000248 ± 1.2e-05
357 K, Crystal, Torsion effusion method	0.000307 ± 1.5e-05
358 K, Crystal, Torsion effusion method	0.000341 ± 1.7e-05
360.5 K, Crystal, Torsion effusion method	0.000443 ± 2.2e-05
361 K, Crystal, Torsion effusion method	0.000467 ± 2.4e-05
361.5 K, Crystal, Torsion effusion method	0.000492 ± 2.5e-05
363 K, Crystal, Torsion effusion method	0.000574 ± 2.9e-05
363.5 K, Crystal, Torsion effusion method	0.000604 ± 3e-05
365 K, Crystal, Torsion effusion method	0.000704 ± 3.5e-05
366 K, Crystal, Torsion effusion method	0.000779 ± 3.9e-05
367 K, Crystal, Torsion effusion method	0.000851 ± 4.3e-05
367.5 K, Crystal, Torsion effusion method	0.0009 ± 4.5e-05
369 K, Crystal, Torsion effusion method	0.001031 ± 5.2e-05
454.2 K, Liquid, Non-isothermal TG	0.643 ± 0.14
454.7 K, Liquid, Non-isothermal TG	0.681 ± 0.14
455.7 K, Liquid, Non-isothermal TG	0.722 ± 0.15
456.7 K, Liquid, Non-isothermal TG	0.754 ± 0.16
457.7 K, Liquid, Non-isothermal TG	0.804 ± 0.17
458.7 K, Liquid, Isothermal TG	0.809 ± 0.17
458.7 K, Liquid, Non-isothermal TG	0.853 ± 0.18
459.1 K, Liquid, Isothermal TG	0.829 ± 0.17
459.2 K, Liquid, Isothermal TG	0.848 ± 0.17
459.7 K, Liquid, Non-isothermal TG	0.904 ± 0.19
459.8 K, Liquid, Isothermal TG	0.868 ± 0.18
460.2 K, Liquid, Isothermal TG	0.887 ± 0.18
460.6 K, Liquid, Isothermal TG	0.907 ± 0.19
460.7 K, Liquid, Isothermal TG	0.928 ± 0.19
460.8 K, Liquid, Non-isothermal TG	0.954 ± 0.2
461 K, Liquid, Isothermal TG	0.928 ± 0.19
461.5 K, Liquid, Isothermal TG	0.948 ± 0.2
461.8 K, Liquid, Non-isothermal TG	1.006 ± 0.21
461.9 K, Liquid, Isothermal TG	0.968 ± 0.2
462 K, Liquid, Isothermal TG	0.979 ± 0.2
462.7 K, Liquid, Isothermal TG	1 ± 0.21
462.7 K, Liquid, Non-isothermal TG	1.056 ± 0.21
463.1 K, Liquid, Isothermal TG	1.027 ± 0.21
463.5 K, Liquid, Isothermal TG	1.048 ± 0.21
463.6 K, Liquid, Isothermal TG	1.055 ± 0.22
463.8 K, Liquid, Non-isothermal TG	1.077 ± 0.22
464.3 K, Liquid, Isothermal TG	1.087 ± 0.22
464.7 K, Liquid, Isothermal TG	1.108 ± 0.23
464.8 K, Liquid, Non-isothermal TG	1.121 ± 0.23
465.1 K, Liquid, Isothermal TG	1.113 ± 0.23
465.2 K, Liquid, Isothermal TG	1.14 ± 0.23
465.8 K, Liquid, Non-isothermal TG	1.175 ± 0.24
465.9 K, Liquid, Isothermal TG	1.167 ± 0.24
466.3 K, Liquid, Isothermal TG	1.187 ± 0.24
466.7 K, Liquid, Isothermal TG	1.208 ± 0.25
466.8 K, Liquid, Isothermal TG	1.227 ± 0.25
466.8 K, Liquid, Non-isothermal TG	1.22 ± 0.25
467.5 K, Liquid, Isothermal TG	1.248 ± 0.26
467.8 K, Liquid, Non-isothermal TG	1.313 ± 0.27
467.9 K, Liquid, Isothermal TG	1.267 ± 0.26
468.3 K, Liquid, Isothermal TG	1.288 ± 0.26
468.4 K, Liquid, Isothermal TG	1.307 ± 0.27
468.8 K, Liquid, Non-isothermal TG	1.364 ± 0.28
469.1 K, Liquid, Isothermal TG	1.328 ± 0.27
469.5 K, Liquid, Isothermal TG	1.348 ± 0.28
469.8 K, Liquid, Non-isothermal TG	1.412 ± 0.29
470 K, Liquid, Isothermal TG	1.381 ± 0.28
470.1 K, Liquid, Isothermal TG	1.389 ± 0.28
470.8 K, Liquid, Isothermal TG	1.434 ± 0.29
470.8 K, Liquid, Non-isothermal TG	1.464 ± 0.3
471.2 K, Liquid, Isothermal TG	1.442 ± 0.3
471.6 K, Liquid, Isothermal TG	1.472 ± 0.3
471.7 K, Liquid, Isothermal TG	1.509 ± 0.31
471.7 K, Liquid, Non-isothermal TG	1.51 ± 0.31
472.5 K, Liquid, Isothermal TG	1.546 ± 0.32
472.7 K, Liquid, Non-isothermal TG	1.557 ± 0.32
473.7 K, Liquid, Non-isothermal TG	1.644 ± 0.34
474.8 K, Liquid, Non-isothermal TG	1.761 ± 0.36
475.7 K, Liquid, Non-isothermal TG	1.829 ± 0.38
476.7 K, Liquid, Non-isothermal TG	1.847 ± 0.37

Conditions	Normal melting temperature [°C]
Crystal, DTA	170.6 ± 0.5

Conditions	Molar enthalpy of transition or fusion [kJ/mol]
[1]	25 ± 2
